Experimental findings from US11708344B2, “Flavone derivatives for the treatment and prophylaxis of hepatitis B virus disease” (Hoffmann-La Roche Inc., priority 2018, dated 2023) are described below.

The subject of the first assay is HBeAg (surrogate marker for cccDNA) in HepDES19 cells. As to the kind of experiment: Engineered HepDES19 primary screen assay (HBeAg ELISA). Format: cell-based, HBV. The conditions noted are these: Hepatitis B virus, HepDES19, 120 h, read-out: IC50 (HBeAg level, HepDES19 primary screen assay), HepDES19 cells, 5 days compound incubation, HBeAg ELISA. The text has this: The assay was employed to screen for novel cccDNA inhibitors. HepDES19 is a cccDNA-producing cell line. In this cell line, HBeAg in the cell culture supernatant as surrogate marker, as HBeAg production depends on cccDNA level and activity. HepDES19 is an engineered cell line which contains a 1.1 unit length HBV genome, and pgRNA transcription from the transgene is controlled by Tetracycline (Tet). In the absence of Tet, pgRNA transcription will be induced, but HBV e antigen (HBeAg) could not be produced from this pgRNA due to very short leader sequence before the HBeAg start codon and the start codon is disrupted. Only after cccDNA is formed, the missing leader sequence and start codon mutation would be restored from the 3′-terminal redundancy of pgRNA, and then HBeAg could be synthesized. Therefore, HBeAg could be used as a surrogate marker for cccDNA (Zhou, T. et al., Antiviral Res. (2006), 72(2), 116-124; Guo, H. et al., J. Virol. (2007), 81(22), 12472-12484).
HepDES19 cells were seeded at 2×10^6 cells per T150 flask and cultured with the culture medium (Dulbecco's Modified Eagle Medium: Nutrient Mixture F-12 [DMEM-F12, Gibco Cat. 11320-82], 10% Fetal Bovine Serum [FBS, Clontech Cat. 631101], 0.1 mM Non-Essential Amino Acids Solution [NEAA, Gibco Cat. 11140-050], 50 μg/mL Penicillin-Streptomycin [PS, Invitrogen Cat. 15140-163], 500 μg/mL Geneticin [G418, Invitrogen Cat. 10131-027]) containing 3 μg/mL Tet (Sigma, Cat. 87128) for 5 days. Cells were then seeded at 4×10^6 cells per T150 in the same culture medium as described above in the absence of Tet for 8 days. Cells were then harvested and frozen at density of 2×10^6 cells per mL. For compound testing, the frozen cells were thawed and seeded into 96-well plates at a density of 6×10^4 cells per well. At 24 hours after seeding, half log serial dilutions of compounds made with Dimethyl sulfoxide (DMSO, Sigma, Cat. D2650) were further diluted with the same culture medium as described above before they were added to the cells to reach desired final compound concentrations and 1% DMSO concentration. Plates were then incubated at 37° C. for another 5 days before measurement of HBeAg level and cell viability. […] HBeAg level were measured with enzyme-linked immunosorbent assay (ELISA) kit (Shanghai Kehua Diagnostic Medical Products Co., Ltd). Cell viability was assessed using Cell Counting Kit-8 (DonJindo, Cat. CK04-20). IC50 values were derived from the dose-response curve using 4 parameter logistic curve fit method.
The compounds of the present invention were tested for their capacity to inhibit extracellular HBeAg level as described herein.
In general terms: In an ELISA, binding on a coated surface is turned into a signal by an enzyme label.
One may read the IC50 as the concentration needed to halve the response being measured. As to `O=C(O)[C@H]1CC[C@@H](Oc2cc(Br)ccc2-c2cc(=O)c3cccc(Cl)c3o2)C1` (relative stereo) [Example B028-A, Cis-3-[5-bromo-2-(8-chloro-4-oxo-chromen-2-yl)phenoxy]cyclopentanecarboxylic acid], the IC50 is 0.471 µM.
Turning to `O=C(O)CCOc1cc(Br)c(OC(F)(F)F)cc1-c1cc(=O)c2cccc(Cl)c2o1` [Example A014, 3-[5-bromo-2-(8-chloro-4-oxo-chromen-2-yl)-4-(trifluoromethoxy)phenoxy]propanoic acid], the IC50 came to 3.22 µM.
As for `O=C(O)CCOc1cc(OC(F)(F)F)ccc1-c1cc(=O)c2ccc(Br)c(Cl)c2o1` [Example A023, 3-[2-(7-bromo-8-chloro-4-oxo-chromen-2-yl)-5-(trifluoromethoxy)phenoxy]propanoic acid], the IC50 is 29.6 µM.
Regarding `Cc1cc(-c2cc(=O)c3cccc(Br)c3o2)c(OCCC(=O)O)cc1Cl` [Example A025, 3-[2-(8-bromo-4-oxo-chromen-2-yl)-5-chloro-4-methyl-phenoxy]propanoic acid], the IC50 came to 3.55 µM.
Consider `COC(=O)CCOc1cc(Cl)c(C)cc1-c1cc(=O)c2cccc(Cl)c2o1` [Example A038, methyl 3-[5-chloro-2-(8-chloro-4-oxo-chromen-2-yl)-4-methyl-phenoxy]propanoate], for which the IC50 turned out to be 4.79 µM.
For `O=C(O)CCOc1cc(C(F)(F)F)ccc1-c1cc(=O)c2c(O)ccc(Cl)c2o1` [Example A045, 3-[2-(8-chloro-5-hydroxy-4-oxo-chromen-2-yl)-5-(trifluoromethyl)phenoxy]propanoic acid], the IC50 was found to be 2.03 µM.
Consider `O=C(O)COc1cc(OC(F)(F)F)ccc1-c1cc(=O)c2cccc(Cl)c2o1` [Example A048, 2-[2-(8-chloro-4-oxo-chromen-2-yl)-5-(trifluoromethoxy)phenoxy]acetic acid], for which the IC50 turned out to be 9.38 µM.
Turning to `O=C(O)CCCCCCOc1cc(C(F)(F)F)ccc1-c1cc(=O)c2cccc(Cl)c2o1` [Example A066, 7-[2-(8-chloro-4-oxo-chromen-2-yl)-5-(trifluoromethyl)phenoxy]heptanoic acid], the IC50 came to 2.44 µM.
The same measure, in the same setting: the same measure for `Cc1cc(-c2cc(=O)c3cccc(Cl)c3o2)c(OCC2(CC(=O)O)CC2)cc1Br` [Example A068, 2-[1-[[5-bromo-2-(8-chloro-4-oxo-chromen-2-yl)-4-methyl-phenoxy]methyl]cyclopropyl]acetic acid]: 5.7 µM.
`O=C(O)c1cccc(COc2cc(Br)ccc2-c2cc(=O)c3cccc(Cl)c3o2)c1` [Example A072, 3-[[5-bromo-2-(8-chloro-4-oxo-chromen-2-yl)phenoxy]methyl]benzoic acid]: the IC50 turned out to be 0.366 µM.
The same measure, in the same setting: the same measure for `CS(=O)(=O)C1CCN(C(=O)COc2cc(C(F)(F)F)ccc2-c2cc(=O)c3cccc(Cl)c3o2)C1` (centres unmarked) [Example A087, 8-chloro-2-[2-[2-(3-methylsulfonylpyrrolidin-1-yl)-2-oxo-ethoxy]-4-(trifluoromethyl)phenyl]chromen-4-one]: 4.98 µM.
For `CCNS(=O)(=O)N[C@@H](COc1cc(C(F)(F)F)ccc1-c1cc(=O)c2cccc(Cl)c2o1)C(=O)OC` [Example A098, methyl (2S)-3-[2-(8-chloro-4-oxo-chromen-2-yl)-5-(trifluoromethyl)phenoxy]-2-(ethylsulfamoylamino)propanoate], the IC50 stood at 0.036 µM.
Same read-out and setting: the figure for `COc1cc(OC2CC(C(=O)O)C2)c(-c2cc(=O)c3cccc(Cl)c3o2)cc1OC` (centres unmarked) [Example B006, 3-[2-(8-chloro-4-oxo-chromen-2-yl)-4,5-dimethoxy-phenoxy]cyclobutanecarboxylic acid] is 5.48 µM.
On to `COc1ccc(-c2cc(=O)c3cccc(Cl)c3o2)c(O[C@H]2C[C@H](C(=O)O)C2)c1` [Example B011-B, Trans-3-[2-(8-chloro-4-oxo-chromen-2-yl)-5-methoxy-phenoxy]cyclobutanecarboxylic acid], for which the IC50 came to 3.48 µM.
For `COc1cc(O[C@H]2C[C@H](C(=O)O)C2)c(-c2cc(=O)c3cccc(Cl)c3o2)cc1Br` [Example B014, Trans-3-[4-bromo-2-(8-chloro-4-oxo-chromen-2-yl)-5-methoxy-phenoxy]cyclobutanecarboxylic acid], the IC50 worked out at 15.5 µM.
As for `CC(C)c1ccc(-c2cc(=O)c3cccc(Cl)c3o2)c(O[C@H]2C[C@@H](C(=O)O)C2)c1` [Example B020-A, Cis-3-[2-(8-chloro-4-oxo-chromen-2-yl)-5-isopropyl-phenoxy]cyclobutanecarboxylic acid], the IC50 was 2.84 µM.
With `COc1ccc(OC[C@H]2C[C@@H](C(=O)O)C2)c(-c2cc(=O)c3cccc(Cl)c3o2)c1` [Example B027-A], the IC50 was determined as 2.47 µM.
In the case of `O=c1cc(-c2ccc(C3CC3)cc2O[C@H]2C[C@H](C(=O)O)C2)oc2c(Cl)cccc12` [Example B035-B, trans-3-[2-(8-chloro-4-oxo-chromen-2-yl)-5-cyclopropyl-phenoxy]cyclobutanecarboxylic acid], the IC50 is 2.02 µM.
Turning to `O=c1cc(-c2ccc(Br)cc2O[C@H]2C[C@H](C(=O)O)C2)oc2c(Cl)ccc(O)c12` [Example B036-B, trans-3-[5-bromo-2-(8-chloro-5-hydroxy-4-oxo-chromen-2-yl)phenoxy]cyclobutanecarboxylic acid], the IC50 was determined as 0.407 µM.
For the compound `Cc1ccc(-c2cc(=O)c3c(O)ccc(Cl)c3o2)c(O[C@H]2C[C@H](C(=O)O)C2)c1` [Example B037-B, Trans-3-[2-(8-chloro-5-hydroxy-4-oxo-chromen-2-yl)-5-methyl-phenoxy]cyclobutanecarboxylic acid], the IC50 amounted to 0.149 µM.
In the case of `CCOc1ccc(-c2cc(=O)c3c(O)ccc(Cl)c3o2)c(O[C@H]2C[C@@H](C(=O)O)C2)c1` [Example B039-A, Cis-3-[2-(8-chloro-5-hydroxy-4-oxo-chromen-2-yl)-5-ethoxy-phenoxy]cyclobutanecarboxylic acid], the IC50 was found to be 6.76 µM.
On to `Cc1cc(-c2cc(=O)c3c(O)ccc(Cl)c3o2)c(O[C@H]2C[C@@H](C(=O)O)C2)cc1Br` [Example B040-A, cis-3-[5-bromo-2-(8-chloro-5-hydroxy-4-oxo-chromen-2-yl)-4-methyl-phenoxy]cyclobutanecarboxylic acid], for which the IC50 was found to be 0.302 µM.
On to `Cc1cc(-c2cc(=O)c3cccc(Cl)c3o2)c(O[C@H]2C[C@H](C(=O)NS(C)(=O)=O)C2)cc1Br` [Example B049-B, Trans-3-[5-bromo-2-(8-chloro-4-oxo-chromen-2-yl) 4-methyl-phenoxy]-N-methylsulfonyl-cyclobutanecarboxamide], for which the IC50 was found to be 8.74 µM.
On the same count and under the same terms, the figure for `COc1cc(O[C@H]2C[C@@H](C(=O)NS(C)(=O)=O)C2)c(-c2cc(=O)c3cccc(Cl)c3o2)cc1Br` [Example B055-A, Cis-3-[4-bromo-2-(8-chloro-4-oxo-chromen-2-yl)-5-methoxy-phenoxy]-N-methylsulfonyl-cyclobutanecarboxamide] is 3.59 µM; for `O=C(O)[C@@H]1C[C@H](Oc2cc(Br)ccc2-c2cc(=O)c3cccc(Cl)c3o2)CN1` [Example B075, (2S,4S)-4-[5-bromo-2-(8-chloro-4-oxo-chromen-2-yl)phenoxy]pyrrolidine-2-carboxylic acid] it is 0.774 µM.

The assay is the same for the next values; noted with them: read-out: IC50 (HBeAg level, HepDES19 primary screen assay); HepDES19 cells, 5 days compound incubation, HBeAg ELISA.
With `O=C(O)C1CC(COc2cc(Br)ccc2-c2cc(=O)c3cccc(Cl)c3o2)C1` (stereo in doubt) [Example B025-A, Cis-3-[[5-bromo-2-(8-chloro-4-oxo-chromen-2-yl)phenoxy]methyl]cyclobutanecarboxylic acid], the IC50 worked out at 4.92 µM.
